Measured values as given in patent US20240408069A1, “NON-INVASIVE MONITORING OF LIVER DISEASE TREATMENT” (INVENTIVA, priority 2023, published 2024).

How the values were obtained:
[1] = test system: adult patients with highly active, non-cirrhotic NASH; conditions: cited from earlier work
[2] = test system: adult patients with highly active, non-cirrhotic NASH; assay: NATIVE phase 2b trial, histological response on liver biopsy after 24 weeks of lanifibranor; type: in vivo, human
Description: Patients were eligible for inclusion if they were 18 years of age or older and had non-cirrhotic NASH (the diagnosis of which required a Steatosis, Activity, Fibrosis [SAF] grade of 1 or higher for steatosis, hepatocellular ballooning and lobular inflammation on liver biopsy). A score of 3 or higher on the SAF-A (the activity part of the SAF scoring system that incorporates the scores for hepatocellular ballooning and lobular inflammation) was also a criterion for eligibility. Patients with stage F4 fibrosis, classified according to the criteria of both the SAF and NASH Clinical Research Network (NASH CRN) were excluded from the study. Patients were randomly assigned in a 1:1:1 ratio to receive 800 or 1200 mg lanifibranor or placebo once daily for 24 weeks. Liver biopsy was obtained at baseline and at the end of treatment. The primary end point of the NATIVE study was defined as a decrease of at least 2 points from baseline to Week 24 (end of treatment) in the SAF-A score and no worsening of fibrosis. Secondary histologic end points included resolution of NASH (defined as a ballooning grade of 0 and a lobular inflammation grade of ≤1) and no worsening of fibrosis; improvement in fibrosis of at least 1 stage and no worsening of NASH (i.e., no worsening in either steatosis, ballooning, or lobular inflammation); Nonalcoholic Fatty Liver Disease Activity Score (NAS) improvement (defined as a decrease of >2 points from baseline to week 24 in the NAS) and no worsening of fibrosis; resolution of NASH and an improvement in fibrosis stage of at least 1 (as a composite end point); change in scores for the components of the SAF and NASH CRN scoring system (steatosis, activity, inflammation, ballooning, and fibrosis); and change in the modified Ishak score. Non-histologic secondary endpoints included changes in a panel of serum biomarkers related to metabolism, inflammation tissue injury and fibrosis. Patients receiving lanifibranor 800 or 1200 mg per day were pooled and those with pre- and post-treatment liver biopsies were selected (n=142). Post-treatment biopsies were considered if they occurred within 14 days following last lanifibranor intake. The following histological endpoint according to NASH-CRN criteria was considered: NASH resolution and fibrosis improvement of at least 1 stage (E1). In the NATIVE trial, from February 2017 through July 2019, 247 patients were randomly assigned to receive 1200 mg of lanifibranor (N=83), 800 mg of lanifibranor (N=83), or placebo (N=81) orally once daily for 6 months. A total of 228 patients completed the trial, 77 in each lanifibranor group and 74 in the placebo group. Reasons for discontinuation of the trial regimen have been reported elsewhere. Finally, among the 154 patients treated with lanifibranor at both doses, 142 patients (N=70 and N=72 patients treated with 800 or 1200 mg per day, respectively) presented with pre- and post-treatment liver biopsies within the time frame required for the present work and were included in the analysis population for signature development.

For `O=C(O)CCCc1cc2cc(Cl)ccc2n1S(=O)(=O)c1ccc2ncsc2c1` [lanifibranor, 4-[1-(1,3-benzothiazol-6-ylsulfonyl)-5-chloroindol-2-yl] butanoic acid], the “Percentage of patients with a decrease of at least 2 points in SAF-A score without worsening of fibrosis, compared to placebo” value ([1]; daily dose of 1200 mg, versus placebo) is given as “significantly higher”, the “Secondary endpoints (NASH resolution and fibrosis improvement, NASH resolution without worsening of fibrosis, improvement of fibrosis without worsening of NASH), compared to placebo” value ([1]; lanifibranor groups versus placebo, NASH-CRN) is given as “more favorable than placebo” and the “Resolution of NASH and improvement of liver fibrosis ≥1 Stage (E1), number of patients reaching endpoint” value (shortened to “Resolution … of patients reaching endpoint”) ([2]; 800 mg once daily, N=70) is given as 17 patients. For the same compound, the “Resolution of NASH and improvement of liver fibrosis ≥1 Stage (E1), patients reaching endpoint” value (“Resolution … (E1), patients reaching endpoint” below) ([2]; 800 mg once daily, N=70) was 24%, the “Resolution … of patients reaching endpoint” value ([2]; 1200 mg once daily, N=72) was 25 patients and the “Resolution … (E1), patients reaching endpoint” value ([2]; 1200 mg once daily, N=72) was 35%. The “Resolution … of patients reaching endpoint” value ([2]; pooled lanifibranor group (800 or 1200 mg once daily), N=142) was 42 patients and the “Resolution … (E1), patients reaching endpoint” value ([2]; pooled lanifibranor group (800 or 1200 mg once daily), N=142 with pre- and post-treatment biopsies) was 30%.
